The values below come from ChEMBL document CHEMBL1201862, “PubChem BioAssay data set” (2004).

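These data come from cells grown in 96-well plates and exposed to compound for 48 hours at five concentrations. The concentration for 50% growth inhibition is given as GI50.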 Activity calls are given as the source filed them. Cut-off read from the data, not from the text of the source: active = GI50 up to about 1.1 µM and inactive = higher. Where only a bound is given, the exact number is not on record here.

Among the test systems are BT-549; COLO 205; HCC 2998; HCT-116; HCT-15; K562; M14; MOLT-4; NCI-H226; NCI-H460; PC-3; RXF 393; SK-MEL-28; SNB-19; SNB-75; LOX IMVI; MDA-MB-435; NCI/ADR-RES; OVCAR-4; SF-268.
What all share (assay): growth of human tumour cells (NCI), 48 h

On to `CCOC(=O)C1CCCCc2sc(N)c(C#N)c21` (stereo unspecified), for which the GI50 with BT-549 is > 100 µM (inactive); in the assay on COLO 205, > 100 µM (inactive); in the assay on HCC 2998 it was > 100 µM (inactive); with HCT-116 it was > 100 µM (inactive); in the assay on HCT-15, more than 100 µM; with K562, > 100 µM (inactive). In addition, the GI50 in the assay with M14, with MOLT-4, in the assay on NCI-H226, in the assay on NCI-H460, in the assay with PC-3 and in the assay on RXF 393 was > 100 µM (inactive) in each case. For the same compound, the GI50 in the assay on SK-MEL-28, with SNB-19 and in the assay on SNB-75 was > 100 µM (inactive) each time.
Regarding `C1CSCC2(COC2)CSCCSCC2(COC2)CS1`, the GI50 in the assay on BT-549 was > 100 µM (inactive); in the assay with COLO 205, > 100 µM (inactive); with HCC 2998 it was > 100 µM (inactive); with HCT-116, > 100 µM (inactive); with HCT-15, more than 100 µM; in the assay with K562, > 100 µM (inactive). Also, the GI50 with LOX IMVI, in the assay with M14, in the assay with MDA-MB-435, in the assay with MOLT-4, with NCI-H460 and in the assay on NCI/ADR-RES was > 100 µM (inactive) each time. Besides, the GI50 in the assay on OVCAR-4 is > 100 µM (inactive); in the assay with PC-3, > 100 µM (inactive); in the assay with SF-268, > 100 µM (inactive); with SK-MEL-28, > 100 µM (inactive); in the assay with SNB-19, > 100 µM (inactive); in the assay with SNB-75, 35.6 µM (inactive).
In the case of `Cc1ccc(S(=O)(=O)NC(=O)NC(CC(N)=O)C(=O)O)cc1` (stereo unspecified), the GI50 is > 100 µM (inactive) in the assay with BT-549; > 100 µM (inactive) with COLO 205; > 100 µM (inactive) in the assay on HCT-116; more than 100 µM in the assay with HCT-15; > 100 µM (inactive) in the assay on K562; > 100 µM (inactive) with LOX IMVI. For the same compound, the GI50 in the assay with M14, in the assay on MOLT-4, in the assay on NCI-H460, in the assay with NCI/ADR-RES, in the assay with OVCAR-4 and in the assay with PC-3 was > 100 µM (inactive) throughout. The GI50 with RXF 393, in the assay with SF-268, with SK-MEL-28, in the assay with SNB-19 and with SNB-75 was > 100 µM (inactive) each time.
In the case of `O=C(O)c1cccc(S(=O)(=O)NN2C(=O)CSC2c2ccc(Cl)cc2Cl)c1` (stereo unspecified), the GI50 was 29.1 µM (inactive) in the assay on BT-549; > 100 µM (inactive) with COLO 205; > 100 µM (inactive) in the assay on HCC 2998; 28.7 µM (inactive) in the assay on HCT-116; 30.2 µM in the assay with HCT-15; 24 µM (inactive) in the assay on K562. Moreover, the GI50 with LOX IMVI is 34.2 µM (inactive); in the assay with M14, 34.5 µM (inactive); with MDA-MB-435 it was 21.2 µM (inactive); in the assay on MOLT-4, 28.8 µM (inactive); in the assay on NCI-H226, 35.4 µM (inactive); with NCI-H460, 41.3 µM (inactive). Further, the GI50 with PC-3 was 94.2 µM (inactive); in the assay on RXF 393, 37.2 µM (inactive); in the assay on SF-268, 36.2 µM (inactive); in the assay on SK-MEL-28, 23.2 µM (inactive); in the assay with SNB-19, 49.5 µM (inactive); with SNB-75, 30.2 µM (inactive).
With `NNC1=N/C(=C\c2ccco2)C(=O)N1`, the GI50 in the assay with BT-549 was 40.6 µM (inactive); in the assay with COLO 205, > 100 µM (inactive); in the assay on HCC 2998, 44.3 µM (inactive); in the assay on HCT-116 it was > 100 µM (inactive); with HCT-15 it was 58.3 µM; with K562, 93.3 µM (inactive). Also, the GI50 with LOX IMVI was 60.1 µM (inactive); in the assay on M14, > 100 µM (inactive); in the assay on MDA-MB-435, > 100 µM (inactive); in the assay on MOLT-4 it was 64.7 µM (inactive); in the assay with NCI-H226 it was > 100 µM (inactive); with NCI/ADR-RES, > 100 µM (inactive). The GI50 was > 100 µM (inactive) in the assay on OVCAR-4; 28.8 µM (inactive) in the assay on PC-3; > 100 µM (inactive) in the assay with SK-MEL-28; > 100 µM (inactive) in the assay on SNB-19; > 100 µM (inactive) with SNB-75.
On to `O=P(O)(O)OC1O[C@H](CO)[C@H](O)[C@H](O)[C@H]1O` (stereo partly specified), for which the GI50 with BT-549 is > 100 µM (inactive); with HCC 2998, > 100 µM (inactive); in the assay with HCT-116 it was > 100 µM (inactive); with HCT-15, more than 100 µM; in the assay on K562 it was > 100 µM (inactive); in the assay with LOX IMVI, > 100 µM (inactive). For the same compound, the GI50 in the assay with M14, with MDA-MB-435, in the assay with NCI-H460, in the assay on NCI/ADR-RES, with OVCAR-4 and in the assay on RXF 393 was > 100 µM (inactive) throughout. In addition, the GI50 in the assay with SF-268, in the assay on SK-MEL-28, in the assay with SNB-19 and in the assay with SNB-75 was > 100 µM (inactive) throughout.
As to `CCc1nnc(S)n1/N=C\c1ccc(-c2ccccc2[N+](=O)[O-])o1`, the GI50 with BT-549 was 28.8 µM (inactive); with COLO 205, 29.9 µM (inactive); in the assay on HCT-116 it was 32.3 µM (inactive); with HCT-15 it was 30.3 µM; in the assay with K562, 27.9 µM (inactive); in the assay with LOX IMVI, 28 µM (inactive). Besides, the GI50 was 39.7 µM (inactive) in the assay on M14; 15.4 µM (inactive) with MDA-MB-435; 19.4 µM (inactive) in the assay on MOLT-4; 12.1 µM (inactive) with NCI-H226; 26.3 µM (inactive) in the assay with NCI/ADR-RES; 44.8 µM (inactive) with OVCAR-4. Moreover, the GI50 in the assay on PC-3 is 41.5 µM (inactive); with RXF 393, 63.5 µM (inactive); in the assay with SF-268, 36.7 µM (inactive); with SNB-19, > 100 µM (inactive); in the assay on SNB-75, 32.1 µM (inactive).
Consider `CC(=O)Oc1ccc2c3c1O[C@H]1[C@H](O)CC[C@@]4(O)[C@@H](C2)N(C)CC[C@]314`, for which the GI50 with BT-549 was > 100 µM (inactive); in the assay on COLO 205 it was > 100 µM (inactive); in the assay with HCT-116, > 100 µM (inactive); in the assay on HCT-15, more than 100 µM; in the assay with LOX IMVI it was > 100 µM (inactive); in the assay on M14, > 100 µM (inactive). The GI50 with MDA-MB-435, in the assay with MOLT-4, in the assay with NCI-H226, in the assay with NCI/ADR-RES, in the assay with OVCAR-4 and in the assay with PC-3 was > 100 µM (inactive) throughout. Besides, the GI50 with SF-268, with SK-MEL-28 and with SNB-19 was > 100 µM (inactive) throughout.
For the compound `CN(Cc1cnc2nc(N)nc(N)c2n1)c1ccc(C(=O)NC(CO)CCCO)cc1` (stereo unspecified), the GI50 in the assay on BT-549 was > 100 µM (inactive); in the assay on COLO 205, > 100 µM (inactive); with HCT-116, > 100 µM (inactive); in the assay on HCT-15, more than 100 µM; in the assay with K562, > 100 µM (inactive); in the assay with LOX IMVI it was > 100 µM (inactive). In addition, the GI50 with M14, in the assay with MDA-MB-435, with MOLT-4, in the assay with NCI-H226, in the assay with NCI-H460 and in the assay with NCI/ADR-RES was > 100 µM (inactive) each time. Moreover, the GI50 in the assay on PC-3, in the assay with RXF 393, with SF-268, in the assay with SK-MEL-28, with SNB-19 and in the assay with SNB-75 was > 100 µM (inactive) in each case.
Take `Cc1cc(S(=O)(=O)Nc2cc(N)n[nH]2)c(SCc2nc(N)nc(N(C)C)n2)cc1Cl`: the GI50 is > 10 µM (inactive) in the assay on BT-549; > 10 µM (inactive) in the assay on COLO 205; > 10 µM (inactive) in the assay on HCC 2998; > 10 µM (inactive) with HCT-116; more than 10 µM in the assay on HCT-15; > 10 µM (inactive) with K562. The GI50 in the assay with LOX IMVI, in the assay on M14, in the assay on MOLT-4, in the assay with NCI-H226, with NCI-H460 and in the assay on NCI/ADR-RES was > 10 µM (inactive) each time. Moreover, the GI50 in the assay with OVCAR-4, in the assay on PC-3, in the assay on RXF 393, in the assay on SF-268, with SK-MEL-28 and in the assay with SNB-19 was > 10 µM (inactive) each time. The GI50 with SNB-75 is > 10 µM (inactive).
With `c1ccc2c(-c3ccnc(-c4c[nH]c5ccccc45)n3)c[nH]c2c1`, the GI50 with BT-549 was > 100 µM (inactive); in the assay on COLO 205, 5.45 µM (inactive); with HCC 2998, 2.79 µM (inactive); in the assay on HCT-116 it was 4.36 µM (inactive); in the assay on HCT-15, 3.19 µM; in the assay with K562, 4.13 µM (inactive). For the same compound, the GI50 in the assay on LOX IMVI was 2.82 µM (inactive); with M14, 1.99 µM (inactive); in the assay on MDA-MB-435, 4.52 µM (inactive); with MOLT-4, 1.87 µM (inactive); with NCI-H460, 2.87 µM (inactive); in the assay on NCI/ADR-RES, 16.4 µM (inactive). Moreover, the GI50 with OVCAR-4 was 8.69 µM (inactive); in the assay with PC-3 it was 2.72 µM (inactive); with SF-268, 10.6 µM (inactive); in the assay on SK-MEL-28 it was 6.9 µM (inactive); in the assay on SNB-19 it was 4.81 µM (inactive).
As to `CC(C)OC(=O)NCCn1cc(-c2ccccc2)nn1`, the GI50 is > 100 µM (inactive) in the assay with BT-549; > 100 µM (inactive) in the assay on COLO 205; > 100 µM (inactive) with HCC 2998; > 100 µM (inactive) in the assay on HCT-116; more than 100 µM with HCT-15; > 100 µM (inactive) in the assay on K562. The GI50 with LOX IMVI, in the assay on M14, with MDA-MB-435, in the assay with MOLT-4, with NCI-H226 and in the assay with NCI-H460 was > 100 µM (inactive) throughout. Besides, the GI50 in the assay with NCI/ADR-RES, with OVCAR-4, in the assay with PC-3, in the assay with SF-268, in the assay on SK-MEL-28 and in the assay on SNB-19 was > 100 µM (inactive) in each case. The GI50 in the assay on SNB-75 is > 100 µM (inactive).
